Laboratory results: patent US11883526B2 (priority 2019, dated 2024)

Experiments:
[1] = system: elderly subjects with TRD; conditions: double-blind phase
Procedure: The Clinician Administered Dissociative States Scale (CADSS) was measured prior to the start of each dose, at 40 minutes, and 1.5 hours postdose.

[2] = single dose study, 72 mg intranasal
Procedure: This study includes a single dose and 14-day repeated dose neurotoxicity studies with intranasally administered esketamine in female rats 12 to 14 weeks of age. These studies were conducted to investigate whether single or repeated intranasal administrations of esketamine induced neurodegenerative changes in the rat brain. The study results were used to estimate an esketamine exposure-based safety margin compared with the maximum dose of esketamine administered intranasally to depressed adult patients in clinical trials.
The vehicle- and the 36 and 54 mg-dosed groups consisted of 24 animals per group, while the 72 mg-dosed and positive control groups involved 30 animals per group. Four satellite animals were added to the esketamine HCl-dosed groups of main study animals for toxicokinetic (TK) purposes. In these animals the plasma exposure to esketamine was measured on the day of dosing at various time points up to and including 24 hours after the first instillation.

[3] = system: subjects with MDD at imminent risk for suicide; assay: Beck Scale for Suicidal Ideation, BSS ([…]2001); type: in vivo, human; conditions: 84 mg; for BSS total score change from baseline, Diff. of LS Means (minus Placebo): ANCOVA LOCF, ITT
Procedure: The BSS is a 21-item self-reported instrument to detect and measure the severity of suicidal ideation in adults and adolescents aged 17 years and older. The BSS total score represents the severity of suicide ideation, and it is calculated by summing the ratings of the first 19 items; the total score ranges from 0 to 38, with a higher score representing greater suicide ideation. Increasing scores reflect increases in suicidal risk.

[4] = system: subjects with MDD at imminent risk for suicide; conditions: 84 mg
Procedure: The CADSS was measured prior to the start of each dose, at 40 minutes, 2 hours, and 4 hours postdose.

[5] = system: patients with treatment-resistant depression (TRD); assay: MADRS total score, response, remission (phase 2 dose-response study, Example 7); type: in vivo, human; conditions: for MADRS total score, LS mean difference vs placebo (all dose groups): 28, 56, 84 mg; for Remitters, % / Responders, %: study period endpoint
Procedure: Efficacy was assessed with the Montgomery-Asberg Depression Rating Scale (MADRS; Montgomery, “A new depression scale designed to be sensitive to change”, Br. J. Psychiatry, 1979, 134:382-389; Williams, “Development and reliability of a structured interview guide for the Montgomery Asberg Depression Rating Scale (SIGMA)”, Br. J. Psychiatry, 2008, 192(1):52-58) on days 1 (pre-dose and 2 hour post-dose), 2, 8 (pre-dose), 9, and 15, using the structured interview guide (SIGMA). See, Williams 2008.
Efficacy data were analyzed in intent-to-treat (ITT) analysis sets for each period and phase. The ITT analysis sets included all participants who received at least 1 dose of study medication during that period or phase and had baseline and at least one post-baseline MADRS total score within that period or phase.
The primary efficacy endpoint—change from baseline (pre-dose, day 1 in each period) to endpoint (day 8 in each period) in MADRS total score—was analyzed using the analysis of covariance (ANCOVA) model. For Period 1, the model included treatment and country as factors, and baseline MADRS total score as covariate. For Period 2, the model included treatment and country as factors, Period 2 baseline QIDS-SR16 score (moderate or severe), and Period 2 baseline MADRS total score as a continuous covariate.
Given the consistency between Periods 1 and 2 results (Chi 2016), esketamine dose groups were compared to placebo using a combined test on the weighted test statistics for each period in the double-blind treatment phase. A dose-response analysis on primary efficacy endpoint was performed using data combined from both periods. The Multiple Comparison Procedure-Modelling (MCP-Mod) methodology was performed (Williams 2008; Bretz, “Combining multiple comparisons and modeling techniques in dose-response studies”, Biometrics, 2005, 61:738-748).

[6] = system: subjects with MDD at imminent risk for suicide; assay: MADRS total score, sustained response ([…]2001); type: in vivo, human; conditions: 84 mg; for MADRS total score change from baseline, Diff. of LS Means (minus Placebo): ANCOVA LOCF
From the text: Primary efficacy variable/Primary Time point: Change from baseline (Day 1, predose) to Day 1, 4-hours postdose in MADRS total score. The MADRS consists of 10 items that cover all of the core depressive symptoms, with each item scoring from 0 (item is not present or is normal) to 6 (severe or continuous presence of the symptom). A higher score represents a more severe condition.
The primary efficacy endpoint is the change in MADRS total score from baseline to Day 1: 4-hours postdose. MADRS total scores range from 0 to 60. […] As this is a phase 2a proof-of-concept study, statistical significance is based on a two-sided alpha level of 0.20. All p-values presented in this document are two-sided.
Sustained response is defined as at least 50% reduction from baseline in MADRS total score with onset on Day 1: 4 hours postdose that is maintained through the end of the double-blind phase (Day 25). Four subjects in the esketamine 84 mg group and 2 subjects in the placebo group had sustained response throughout the double-blind phase.

[7] = system: glutamate NMDA receptor; conditions: in vitro; cited from earlier work
[8] = system: subjects with TRD; conditions: human, in vivo, other: intranasal
Procedure: FIGS. 53 and 54 present means for blood pressure over time by treatment group in the maintenance phase.
Transient blood pressure increases peaked for the esketamine group at approximately 40 minutes post dose and returned closer to predose levels by 1.5 hours post dose.

[9] = system: elderly subjects with TRD; type: in vivo, human; conditions: each dosing day
From the text: The Modified Observer's Assessment of Alertness/Sedation (MOAA/S) was used to measure treatment-emergent sedation with correlation to levels of sedation defined by the American Society of Anesthesiologists (ASA) continuum. The MOAA/S scores range from 0 (No response to painful stimulus; corresponds to ASA continuum for general anesthesia) to 5 (Readily responds to name spoken in normal tone [awake]; corresponds to ASA continuum for minimal sedation). The proportion of subjects with sedation was <4% for the esketamine group for each dosing day.

CN[C@]1(c2ccccc2Cl)CCCCC1=O [esketamine, (S)-2-(2-chlorophenyl)-2-(methylamino)cyclohexanone]
dissociative and perceptual change symptoms (CADSS) resolved by [1]: ≤ 1.5 hours postdose
AUC-based safety margin compared with the maximum 84 mg clinical dose [2]: ~86 fold
Cmax-based safety margin compared with the maximum 84 mg clinical dose [2]: approximately 60 fold
change in BSS total score vs placebo ([3]; Day 1 4-hours postdose, Day 2 (DB), End Point (DB)): no statistically significant differences
BSS total score change from baseline, Diff. of LS Means (minus Placebo) ([3]; Day 1(DB): 4 H): −2.3
BSS total score change from baseline, Diff. of LS Means (minus Placebo) ([3]; Day 2(DB)): −1.9
BSS total score change from baseline, Diff. of LS Means (minus Placebo) ([3]; End Point(DB)): −1.7
dissociative and perceptual change symptoms (CADSS) resolved by [4]: ≤ 2 hours post dose
proportion of responders (≥50% improvement in MADRS) ([5]; 84 mg, Period 2 endpoint): 50.0%
MADRS total score, LS mean difference vs placebo (all dose groups) ([5]; Period 1, baseline to day 8): −5.0 to −10.5
Remitters, % ([5]; Period 1, 84 mg): (25.0) %
Responders, % ([5]; Period 1, 84 mg): (41.7) %
MADRS total score, LS mean difference vs placebo (all dose groups) ([5]; Period 2, day 8 to day 15): −3.1 to −6.9
MADRS total score, LS mean change ([5]; Period 2, change at study period endpoint, 56 mg): −8.9
Remitters, % ([5]; Period 2, 28 mg): (12.5) %
Responders, % ([5]; Period 2, 28 mg): (12.5) %
Remitters, % ([5]; Period 2, 84 mg): (20.0) %
subjects with sustained response throughout the double-blind phase ([6]; ≥50% MADRS reduction from Day 1 4 h through Day 25): Four
MADRS total score change from baseline, Diff. of LS Means (minus Placebo) ([6]; Day 1(DB): 4 H, ITT): −5.3
MADRS total score change from baseline, Diff. of LS Means (minus Placebo) ([6]; Day 2(DB), ITT): −7.2
MADRS total score change from baseline, Diff. of LS Means (minus Placebo) ([6]; End Point(DB), ITT): −4.5
Day 25 sustained response (MADRS) No: no. of subjects ([6]; ITT): 30
Withdrawn from double-blind phase: Lack of Efficacy, percent of subjects ([6]; all randomized analysis set): (2.8%)
Withdrawn from double-blind phase: Lack of Efficacy, number of subjects ([6]; all randomized analysis set, N = 36): 1
Day 25 sustained response (MADRS) Yes: no. of subjects ([6]; at least 50 percent reduction from Day 1 through Day 25, ITT): 4
affinity for the glutamate NMDA receptor relative to R-ketamine [7]: 3 to 4 fold
blood pressure returned closer to predose levels by [8]: ≤ 1.5 hours post dose
time of peak of transient blood pressure increase post dose [8]: approximately 40 minutes
proportion of subjects with sedation (post dose MOAA/S score ≤3) [9]: < 4%
